Experimental findings from patent US20220202739A1, “ENDOCANNABINOID MIMETIC AND ANTI-INFLAMMATORY COMPOUND CONTAINING COMPOSITIONS, METHODS OF PREPARATION AND USES THEREOF” (priority 2019, published 2022) are described below.

Common to all, as to assay type: cell-based, human
Common to all, as to details: pooled keratinocytes, 20 ppm, 24 hr

The test system of one assay is KLF4. As to the kind of experiment: Gene expression custom microarray, pooled keratinocyte line (Example 3): KLF4. As to the method: (§1) Cell cultures: Received and began culture of pooled keratinocyte line from Promocell (C-12006; Lot #448Z026). Cells were seeded into a 75 cm2 flask and 2 6 well dishes for expansion and exposure per manufacturer's protocol using Keratinocyte Growth Medium (C2011B), Keratinocyte Supplement Mix (C39016) and CaCl (C34005). 2 ml of prepared solution were added to each of the 6 wells and 7 ml was added to the 75 cm2 flask.
(§2) Experimental phase: When the appropriate quantity of cells were grown, they were detached as described above, but at the final step were seeded into each well of one or more 6 well dishes. Each well received 2 ml of the cells suspended in suspension so they were seeded equally. The dishes were returned to the incubator until 85-95% confluency is reached.
(§3) It was at this stage that all wells were rinsed in PBS after aspirating the growth media. The compound(s) to be tested were previously mixed into a suitable solvent (e.g., DMSO or ethanol) that can be diluted to the desired concentration of test compound (10 μl) in the culture wells without exceeding maximum solvent concentrations and adversely effecting cell viability, and mixed with Basal Keratinocyte Media. NOTE: Standard maximum levels of solvent are 0.1% for DMSO and 0.5% for ETOH. The concentration for each tested compound/natural extract is generally listed in the left-hand column of Table 4. For certain compositions (e.g., compositions 15 and 16), other concentrations were used and are noted in the body of Table 4.
(§4) Every 2 wells on the 6 well plate served as a biological replicate for the purposes of RNA isolation and genetic expression evaluations making each 6 well dish an n=3 for the test compound contained in the media. […]
(§5) At the end of the 24 hr time period, the plates were removed from the incubator, the test media aspirated, and the cells rinsed with PBS. […] Allow 1 minute for saturation of the membrane and then centrifuge for 2 minutes to complete the RNA elution. • Quantify the quantity of RNA and store at −20 C° until use (no more than 1 month) […]

In a further assay the test system is IL1A. As to the kind of experiment: Gene expression custom microarray, pooled keratinocyte line (Example 3): IL1A. As to the method:
as §1, §2, §3, §4, §5

A further assay has as its system FLG. The experiment in a line: Gene expression custom microarray, pooled keratinocyte line (Example 3): FLG. On the procedure:
as §1, §2, §3, §4, §5

Another assay deals with NFKB1. As to the kind of experiment: Gene expression custom microarray, pooled keratinocyte line (Example 3): NFKB1. As to the method: NOTE: Standard maximum levels of solvent are 0.1% for DMSO and 0.5% for ETOH.
The plates were returned to the incubator for 24 hrs.
At the end of the 24 hr time period, the plates were removed from the incubator, the test media aspirated, and the cells rinsed with PBS. […] Pipet multiple times to ensure thorough lysis. Add lysed cells to the collection tube. • Add 350 μl of 70% ETOH to the collection tube and mix thoroughly. • Pipet the generated lysate onto the spin column placed in a new 2 ml tube. Centrifuge for 30 sec between 8,000 and 10,000 g. • Place the spin column containing the now bound RNA, in a new 2 ml tube. Add 700 μl of low stringency wash solution to the spin column. Centrifuge for 30 sec between 8,000 and 10,000 g. Discard the flow through and replace spin column. • Add 80 μl of DNase I dilution to the spin column and incubate at room temperature for 15 minutes. • Add 700 μl of high stringency wash solution to the column and centrifuge for 30 sec between 8,000 and 10,000 g. Discard flow through. • Add 700 μl of low stringency wash solution to the column and centrifuge for 60 sec between 8,000 and 10,000 g. Discard flow through. • Centrifuge for 2 minutes to remove residual wash solution. • Transfer spin column to new 1.5 ml collection tube and add 80 μl of elution solution to the column. Allow 1 minute for saturation of the membrane and then centrifuge for 2 minutes to complete the RNA elution. • Quantify the quantity of RNA and store at −20 C° until use (no more than 1 month)

In the case of `C=C(C)[C@@H]1CCC(C)=C[C@H]1c1c(O)cc(CCCCC)cc1O` [CBD, cannabidiol, reference compound], the “↑KLF4 gene expression, fold increase or decrease vs untreated cells” value in the assay with KLF4 came out at 3.5 fold. In the assay on IL1A, the “↓IL1A gene expression, fold increase or decrease vs untreated cells” value was 2.3 fold. Moreover, the “↑FLG gene expression, fold increase or decrease vs untreated cells” value in the assay with FLG turned out to be 1.1 fold. In the assay with NFKB1, the “↓NFKB1 gene expression, fold increase or decrease vs untreated cells” value came out at 2.5 fold.
In the same order, the values of `CCCCCCCCCCCCCCCC(=O)NCCO` [N-palmitoylethanolamide] are 1.7 fold, −1.2 fold, 28.6 fold and −2.2 fold.
In the same order, the values of `CC(C)[C@]12O[C@H]1[C@@H]1O[C@]13[C@]1(O[C@H]1C[C@H]1C4=C(CC[C@@]13C)C(=O)OC4)[C@@H]2O` [Triptolide] are 1.5 fold, −14 fold, 14.4 fold and −4.2 fold.
